The results in this text go back to patent US10883981B2, “Fluorescent fusion polypeptide, encoding nucleic acid, and cell comprising said polypeptide” (priority 2012, dated 2021).

Experiment [1] concerns HEK293 and U2O2 cells stably transfected with calcium biosensor. Put plainly: Calcium biosensor cellular localization upon calcium induced activation. The experiment is classed as cell-based. Conditions: 10 ng/ml of PMA and 1 uM of ionomycin applied together. An excerpt: After transfection, both cell lines presented a membrane distribution of the fluorescence.
Experiment [2] concerns U2OS stably expressing fluorescent DAG biosensor. As to the kind of experiment: DAG biosensor fluorescence redistribution (internalization) assay.
Protocol: Cellular distribution of DAG biosensor stimulated cells. […] DAG biosensor activity was determined measuring the generation of the vesicle using image analysis algorithms.
As with the previous examples, in order to assess whether the activation of the above mentioned polypeptide induces intracellular fluorescence redistribution in living cells, peptide turboGFP was cloned as the fluorescent peptide and the cellular localization of the biosensor was analysed upon diacylglycerol induced activation. In this sense, U2O2 cell line was stably transfected with the plasmid construction that contains the above mentioned biosensor's coding sequence. […] As with the previous examples, activity was calculated as an increment of granularity by treating these cells with increasing dosages of PMA.
In experiment [3] the target is human Tachykinin receptor 1 (Neurokinin 1 receptor) (Homo sapiens, UniProt P25103). Conditions: 10 uM, 6 hours, U2OS expressing human Neurokinin receptor 1 and calcium biosensor.
Sequence of human Tachykinin receptor 1 (Neurokinin 1 receptor) (P25103 whole entry): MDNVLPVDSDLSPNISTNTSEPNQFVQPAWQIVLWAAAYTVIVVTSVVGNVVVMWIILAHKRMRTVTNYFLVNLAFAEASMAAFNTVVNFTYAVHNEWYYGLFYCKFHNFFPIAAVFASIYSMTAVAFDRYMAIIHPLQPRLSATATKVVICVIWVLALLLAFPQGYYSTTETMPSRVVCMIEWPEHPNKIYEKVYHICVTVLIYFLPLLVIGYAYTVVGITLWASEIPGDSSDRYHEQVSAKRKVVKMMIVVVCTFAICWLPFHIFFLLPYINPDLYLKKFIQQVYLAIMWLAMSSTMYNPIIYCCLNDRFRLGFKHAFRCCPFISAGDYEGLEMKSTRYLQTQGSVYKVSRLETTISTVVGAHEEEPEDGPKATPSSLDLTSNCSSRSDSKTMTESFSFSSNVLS
Protocol: Secondly, in order to determine whether calcium induces a significant conformational change within a physiological dynamic range, the U2O2 biosensor stable cell line was stably transfected with the human Tachykinin receptor 1.
The double stable cell line was seeded at 20,000 cells per well on 96-mm optical plates, and cultured in 200 ul of DMEM F12 supplemented with 10% fetal bovine serum. For fluorescent biosensor redistribution, cells were stimulated with different concentrations of the agonist Substancia P during 6 hours. After treatment, the nucleus was stained with DAPI and biosensor fluorescence redistribution was detected by fluorescence using image analysis algorithms. […] The activity was calculated as an increment of the granularity of these cells. Cells were treated with 11 log dilution series (n=5).

As usually defined, the EC50 is the concentration giving half of the maximal effect.

In brackets after ≈: the same amount, converted by molar mass.

For the compound `C[C@H](CCC(=O)O)C[C@H](C)C[C@H](C)C(=O)/C=C(\O)[C@H](C)C[C@H](C)C/C=C/[C@@H](C)[C@@H](O)[C@@H](C)[C@@H](O)C[C@@H]1CC[C@@](C)([C@H]2CC[C@@](C)([C@@H](C)O)O2)O1` [ionomycin], the “Membrane distribution of calcium biosensor after raising intracellular calcium” value in experiment [1] is “substantial decrease in membrane distribution”.

`CCCCCCCCCCCCCC(=O)O[C@@H]1[C@@H](C)[C@@]2(O)[C@@H](C=C(CO)C[C@]3(O)C(=O)C(C)=C[C@@H]23)[C@@H]2C(C)(C)[C@]12OC(C)=O` [PMA]: the “Membrane distribution of calcium biosensor after raising intracellular calcium” value in experiment [1] is on record as “substantial decrease in membrane distribution”. The “Cellular distribution of fluorescent DAG biosensor after treatment” value in experiment [2] (25 ng/ml, 4 hours, U2OS expressing DAG biosensor) is reported as “internalized in vesicles in the citosol”.

As to `CC(C)NCC(O)c1ccc(O)c(O)c1` (centres unmarked) [Isoproterenol], in experiment [2] (Homo sapiens, U2OS, 4 h, read-out: Ec50, biosensor redistribution (increment of granularity)), the EC50 is 0.000289 ng/mL (≈ 0.00137 nM).

As to Substance P, the “Cellular distribution of fluorescent calcium biosensor after treatment” value in experiment [3] is reported as “internalized in vesicles in the citosol”.
